# BindingDB's records for doi:10.1016/j.ejmech.2018.06.047 (University of Oulu, 2018)
# Test: Inhibition of ARTD10 (unknown origin)-induced cell death expressed in human HeLa cells after 10 days by methylene blue staining based colony formation assay
row,Compound,IC50 [nM]
1,NC(=O)c1ccc(OCc2ccccc2F)cc1,2000
2,NC(=O)c1ccc(Oc2ccc(C=O)cc2)cc1,1000
